Data reported in patent publication US9833497B2, “Human originated EGF domain proteins and use of the same” (CHENGDU SOURCEBIO LIMITED-LIABILITY COMPANY, priority 2013, dated 2017).

Tests used:
Type in all cases: cell-based
Serratia marcescens = assay: MIC against Gram-negative bacteria: Serratia marcescens; settings: for MIC: S. marcescens
Summary of the method: (§1)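 Bacteria grown in LB at 37° C to McFarland 0.5, resuspended and seeded at 5×10^5 CFU/mL in 96-well plates. Purified human EGF-domain proteins two-fold serially diluted, triplicate wells; cultured at 37° C, shaking 175 rpm. MIC = lowest protein concentration with no growth.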

Enterobacter cloacae = assay: MIC against Gram-negative bacteria: Enterobacter cloacae; settings: for MIC: E. cloacae
Summary of the method: as §1

Aeromonas hydrophila = assay: MIC against Gram-negative bacteria: Aeromonas hydrophila; settings: for MIC: A. hydrophila
Summary of the method: as §1

Klebsiella pneumonia = assay: MIC against Gram-negative bacteria: Klebsiella pneumonia; settings: for MIC: K. pneumonia
Summary of the method: as §1

Proteus vulgaris = assay: MIC against Gram-negative bacteria: Proteus vulgaris; settings: for MIC: P. vulgaris
Summary of the method: as §1

Citrobacter diversus = assay: MIC against Gram-negative bacteria: Citrobacter diversus; settings: for MIC: C. diversus
Summary of the method: as §1

E. coli BL21 = assay: MIC against Gram-negative bacteria: E. coli BL21; settings: for MIC: E. coli BL21
Summary of the method: as §1

Proteus mirabilis = assay: MIC against Gram-negative bacteria: Proteus mirabilis; settings: for MIC: P. mirabilis
Summary of the method: as §1

Moraxella catarrhalis = assay: MIC against Gram-negative bacteria: Moraxella catarrhalis; settings: for MIC: M. catarrhalis
Summary of the method: as §1

E. coli DH5α = assay: Antibacterial activity: MIC and growth curve against E. coli DH5α in 96-well plate; settings: minimal inhibitory concentration against E. coli DH5α; 96-well plate, 5×10^5 CFU/mL, 37° C., judged after 8 h
Summary of the method: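 Log-phase DH5α (OD600 about 0.5, 37° C, 185 rpm in LB) was pelleted, resuspended in fresh LB and seeded at 5×10^5 CFU/mL with recombinant protein at 50, 25 and 12.5 μg/mL (two-fold series), in triplicate. Plates were shaken at 175 rpm, 37° C, and OD600 was read every 30 min. MIC was the lowest concentration with no growth.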

Pseudomonas aeruginosa = assay: MIC against Gram-negative bacteria: Pseudomonas aeruginosa; settings: for MIC: P. aeruginosa
Summary of the method: as §1

[1] = 96-well plate, 5×10^5 CFU/mL, 37° C., 10 h
[2] = 10 h cultivation at 37° C., 5×10^5 CFU/mL
[3] = 10 h cultivation at 37° C., 5×10^5 CFU/mL, two-fold serial dilution

Substance: PRT913 (VINGCKGKPCKNGGTCAVASNTARGFICKCPAGFEGATCE; listed as Homo sapiens)
- MIC (Serratia marcescens; 10 h cultivation at 37° C.): 50 µg/mL
- MIC (Enterobacter cloacae; 10 h cultivation at 37° C.): 12.5 µg/mL
- MIC (Aeromonas hydrophila; 10 h cultivation at 37° C.): 25 µg/mL
- MIC (Klebsiella pneumonia; 10 h cultivation at 37° C.): 25 µg/mL
- MIC (Proteus vulgaris; 10 h cultivation at 37° C.): 12.5 µg/mL
- MIC (Citrobacter diversus; 10 h cultivation at 37° C.): 25 µg/mL
- MIC (E. coli BL21; 10 h cultivation at 37° C.): 25 µg/mL
- MIC (Proteus mirabilis; 10 h cultivation at 37° C.): 25 µg/mL
- MIC (Moraxella catarrhalis; 10 h cultivation at 37° C.): 50 µg/mL
- MIC (E. coli DH5α): 12.5 µg/mL
- MIC (Pseudomonas aeruginosa; 10 h cultivation at 37° C.): 50 µg/mL

Substance: PRT591 (CACDPHNSLSPQCNQFTGQCPCREGFGGLMCSAAAIRQCPDRTYGDVATGCRA; listed as Homo sapiens)
- MIC against S. marcescens (Serratia marcescens; [1]): 12.5 µg/mL
- MIC against E. cloacae (Enterobacter cloacae; [1]): 25 µg/mL
- MIC against A. hydrophila (Aeromonas hydrophila; [1]): 50 µg/mL
- MIC against K. pneumonia (Klebsiella pneumonia; [1]): 12.5 µg/mL
- MIC against P. vulgaris (Proteus vulgaris; [1]): 50 µg/mL
- MIC against C. diversus (Citrobacter diversus; [1]): 12.5 µg/mL
- MIC against E. coli BL21 (E. coli BL21; [1]): 50 µg/mL
- MIC against P. mirabilis (Proteus mirabilis; [1]): 12.5 µg/mL
- MIC against M. catarrhalis (Moraxella catarrhalis; [1]): 50 µg/mL
- MIC (E. coli DH5α): 25 µg/mL
- MIC against P. aeruginosa (Pseudomonas aeruginosa; [1]): 25 µg/mL

Substance: PRT1037 (DCSRPCPPGRQKSPRDPCQCVCHGSAVTTQDCC; listed as Homo sapiens)
- MIC (Serratia marcescens; 10 h cultivation at 37° C.): 50 µg/mL
- MIC (Enterobacter cloacae; 10 h cultivation at 37° C.): 25 µg/mL
- MIC (Aeromonas hydrophila; 10 h cultivation at 37° C.): 25 µg/mL
- MIC (Klebsiella pneumonia; 10 h cultivation at 37° C.): 12.5 µg/mL
- MIC (Proteus vulgaris; 10 h cultivation at 37° C.): 50 µg/mL
- MIC (Citrobacter diversus; 10 h cultivation at 37° C.): 50 µg/mL
- MIC (E. coli BL21; 10 h cultivation at 37° C.): 50 µg/mL
- MIC (Proteus mirabilis; 10 h cultivation at 37° C.): 12.5 µg/mL
- MIC (Moraxella catarrhalis; 10 h cultivation at 37° C.): 25 µg/mL
- MIC (E. coli DH5α): 12.5 µg/mL
- MIC (Pseudomonas aeruginosa; 10 h cultivation at 37° C.): 50 µg/mL

Substance: PRT738 (FHTRCEEDNGGCSHLCLLSPSEPFYTCACPTGVQLQDNGRTCK; listed as Homo sapiens)
- MIC S. marcescens (Serratia marcescens; [1]): 25 µg/mL
- MIC E. cloacae (Enterobacter cloacae; [1]): 12.5 µg/mL
- MIC A. hydrophila (Aeromonas hydrophila; [1]): 50 µg/mL
- MIC K. pneumonia (Klebsiella pneumonia; [1]): 50 µg/mL
- MIC P. vulgaris (Proteus vulgaris; [1]): 25 µg/mL
- MIC C. diversus (Citrobacter diversus; [1]): 12.5 µg/mL
- MIC E. coli BL21 (E. coli BL21; [1]): 12.5 µg/mL
- MIC P. mirabilis (Proteus mirabilis; [1]): 50 µg/mL
- MIC M. catarrhalis (Moraxella catarrhalis; [1]): 25 µg/mL
- MIC (E. coli DH5α): 50 µg/mL
- MIC P. aeruginosa (Pseudomonas aeruginosa; [1]): 25 µg/mL

Substance: PRT683 (DIDECSQDPSLCLPHGACKNLQGSYVCVCDEGFTPTQDQHGCE; listed as Homo sapiens)
- MIC S. marcescens (Serratia marcescens; [1]): 25 µg/mL
- MIC E. cloacae (Enterobacter cloacae; [1]): 12.5 µg/mL
- MIC A. hydrophila (Aeromonas hydrophila; [1]): 50 µg/mL
- MIC K. pneumonia (Klebsiella pneumonia; [1]): 25 µg/mL
- MIC P. vulgaris (Proteus vulgaris; [1]): 50 µg/mL
- MIC C. diversus (Citrobacter diversus; [1]): 25 µg/mL
- MIC E. coli BL21 (E. coli BL21; [1]): 25 µg/mL
- MIC P. mirabilis (Proteus mirabilis; [1]): 12.5 µg/mL
- MIC M. catarrhalis (Moraxella catarrhalis; [1]): 25 µg/mL
- MIC (E. coli DH5α): 12.5 µg/mL
- MIC P. aeruginosa (Pseudomonas aeruginosa; [1]): 50 µg/mL

Substance: PRT424 (DINECVTDLHTCSRGEHCVNTLGSFHCYKALTCEPGYALKDGECE; listed as Homo sapiens)
- MIC (Serratia marcescens; [2]): 25 µg/mL
- MIC (Enterobacter cloacae; [2]): 25 µg/mL
- MIC (Aeromonas hydrophila; [2]): 50 µg/mL
- MIC (Klebsiella pneumonia; [2]): 12.5 µg/mL
- MIC (Proteus vulgaris; [2]): 50 µg/mL
- MIC (Citrobacter diversus; [2]): 25 µg/mL
- MIC (E. coli BL21; [2]): 50 µg/mL
- MIC (Proteus mirabilis; [2]): 25 µg/mL
- MIC (Moraxella catarrhalis; [2]): 12.5 µg/mL
- MIC (E. coli DH5α): 25 µg/mL
- MIC (Pseudomonas aeruginosa; [2]): 25 µg/mL

Substance: PRT1186 (KNSSCLPNPCVNGGTCVGSGASFSCICRDGWEGRTCT; listed as Homo sapiens)
- MIC S. marcescens (Serratia marcescens; [3]): 12.5 µg/mL
- MIC E. cloacae (Enterobacter cloacae; [3]): 50 µg/mL
- MIC A. hydrophila (Aeromonas hydrophila; [3]): 12.5 µg/mL
- MIC K. pneumonia (Klebsiella pneumonia; [3]): 25 µg/mL
- MIC P. vulgaris (Proteus vulgaris; [3]): 50 µg/mL
- MIC C. diversus (Citrobacter diversus; [3]): 25 µg/mL
- MIC E. coli BL21 (E. coli BL21; [3]): 25 µg/mL
- MIC P. mirabilis (Proteus mirabilis; [3]): 12.5 µg/mL
- MIC M. catarrhalis (Moraxella catarrhalis; [3]): 50 µg/mL
- MIC (E. coli DH5α): 50 µg/mL
- MIC P. aeruginosa (Pseudomonas aeruginosa; [3]): 12.5 µg/mL

Substance: PRT590 (CDCNILGSRRDMPCDEESGRCLCLPNVVGPKCDQCAPYHWKLASGQGCEP; listed as Homo sapiens)
- MIC against S. marcescens (Serratia marcescens; [1]): 12.5 µg/mL
- MIC against E. cloacae (Enterobacter cloacae; [1]): 50 µg/mL
- MIC against A. hydrophila (Aeromonas hydrophila; [1]): 25 µg/mL
- MIC against K. pneumonia (Klebsiella pneumonia; [1]): 25 µg/mL
- MIC against P. vulgaris (Proteus vulgaris; [1]): 25 µg/mL
- MIC against C. diversus (Citrobacter diversus; [1]): 12.5 µg/mL
- MIC against E. coli BL21 (E. coli BL21; [1]): 25 µg/mL
- MIC against P. mirabilis (Proteus mirabilis; [1]): 50 µg/mL
- MIC against M. catarrhalis (Moraxella catarrhalis; [1]): 25 µg/mL
- MIC (E. coli DH5α): 50 µg/mL
- MIC against P. aeruginosa (Pseudomonas aeruginosa; [1]): 12.5 µg/mL
